This note sets out measurements from paper PMC5237709 (Acta Pharmaceutica Sinica. B, 2016).

In assay [1] the target is T1, C-Hsp90 (Saccharomyces cerevisiae, UniProt P02829).
T1 sequence (P02829 608-709): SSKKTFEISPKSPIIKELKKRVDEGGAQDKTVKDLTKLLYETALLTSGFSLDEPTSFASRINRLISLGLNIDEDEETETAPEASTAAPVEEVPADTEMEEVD
Description: Fluorescence quenching titration of C-terminal domain of Hsp90. Type of assay: binding, Yeast. The conditions noted are these: C-Hsp90 (629–732).

Assay [2] concerns the target Hsp90 ATPase (Saccharomyces cerevisiae, UniProt P02829). Nature of the assay: Hsp90 ATPase activity assay. Type of assay: biochemical, Yeast.
For assay [3], the target named is M-Hsp90 (Saccharomyces cerevisiae, UniProt P02829). Nature of the assay: Fluorescence quenching titration of middle domain of Hsp90. The following applies: M-Hsp90 (272–617). Type of assay: binding, Yeast.
Assay [4] deals with N-Hsp90 (Saccharomyces cerevisiae, UniProt P02829). Nature of the assay: Fluorescence quenching titration of N-terminal domain of Hsp90. Type of assay: binding, Yeast. The following applies: N-Hsp90 (1–236).
Sequence of N-Hsp90 (P02829 1-223): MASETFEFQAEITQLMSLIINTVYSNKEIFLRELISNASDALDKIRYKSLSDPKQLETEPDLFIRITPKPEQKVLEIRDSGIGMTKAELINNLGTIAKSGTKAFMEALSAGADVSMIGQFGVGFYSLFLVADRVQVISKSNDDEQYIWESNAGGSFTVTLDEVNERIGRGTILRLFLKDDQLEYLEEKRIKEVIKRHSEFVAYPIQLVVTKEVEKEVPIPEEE

Sequence of M-Hsp90 (P02829 252-596): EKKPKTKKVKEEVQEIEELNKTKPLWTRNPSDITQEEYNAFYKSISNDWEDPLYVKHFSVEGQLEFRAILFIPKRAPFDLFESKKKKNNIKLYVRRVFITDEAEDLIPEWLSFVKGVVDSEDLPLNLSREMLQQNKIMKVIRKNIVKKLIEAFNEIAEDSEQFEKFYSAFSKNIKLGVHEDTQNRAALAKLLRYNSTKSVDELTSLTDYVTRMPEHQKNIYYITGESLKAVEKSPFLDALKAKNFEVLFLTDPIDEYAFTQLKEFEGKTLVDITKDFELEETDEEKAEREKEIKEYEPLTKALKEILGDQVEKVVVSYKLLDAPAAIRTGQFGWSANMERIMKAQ
Sequence of Hsp90 ATPase (P02829 whole entry, the tested form may be a part): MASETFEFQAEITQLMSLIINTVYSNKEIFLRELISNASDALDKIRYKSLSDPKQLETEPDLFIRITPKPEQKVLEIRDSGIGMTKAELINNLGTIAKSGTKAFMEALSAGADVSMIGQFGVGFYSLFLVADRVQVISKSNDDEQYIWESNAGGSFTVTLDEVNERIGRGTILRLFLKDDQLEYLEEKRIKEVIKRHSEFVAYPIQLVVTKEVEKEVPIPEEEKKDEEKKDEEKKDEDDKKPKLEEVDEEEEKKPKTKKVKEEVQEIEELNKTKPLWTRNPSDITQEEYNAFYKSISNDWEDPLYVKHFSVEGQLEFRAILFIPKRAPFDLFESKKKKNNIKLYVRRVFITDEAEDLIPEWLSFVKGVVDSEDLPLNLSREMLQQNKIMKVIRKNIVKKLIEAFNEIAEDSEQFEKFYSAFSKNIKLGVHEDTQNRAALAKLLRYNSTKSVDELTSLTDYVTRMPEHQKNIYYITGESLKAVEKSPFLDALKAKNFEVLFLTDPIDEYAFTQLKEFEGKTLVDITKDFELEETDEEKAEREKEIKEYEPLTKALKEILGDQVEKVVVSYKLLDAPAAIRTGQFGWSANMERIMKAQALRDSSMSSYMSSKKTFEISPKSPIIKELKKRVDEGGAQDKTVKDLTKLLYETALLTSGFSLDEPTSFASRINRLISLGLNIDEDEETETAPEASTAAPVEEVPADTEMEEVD

For the compound `COC1=C2C[C@@H](C)C[C@H](OC)[C@H](O)[C@@H](C)/C=C(\C)[C@H](OC(N)=O)[C@@H](OC)/C=C\C=C(/C)C(=O)NC(=CC1=O)C2=O` [GA, Geldanamycin], the Fmax in assay [1] worked out at 67.91±0.63; in assay [3] it was 158.20±1.68; in assay [4] it was 221.22±4.91. The “Inhibition of the ATPase activity of Hsp90 (in words)” value in assay [2] was “dose-dependent inhibition”.
